{
  "source": "patent US20090136470A1",
  "about": "“REGULATORY T CELLS AND METHODS OF MAKING AND USING SAME” (priority 2007, published 2009)",
  "key": {"[1]": {"test_system": "CD4^+CD25^− spleen T cells", "test": "Th-17 differentiation of CD4 T cells stimulated with dendritic cells or spleen APCs plus TGF-β and IL-6 (intracellular IL-17 staining, IL-17 ELISA)", "format": "cell-based, mouse", "method": "(§1) For CD4^+CD25^− T cell isolation, spleens were removed, teased into cell-single suspensions and filtered through a 70 μm cell strainer (Fisher Scientific, USA). CD4^+CD25^−T cells were isolated by negative selection after incubation with a mix of specific biotin-conjugated mAbs (anti-CD8, CD11b, CD11ε, CD25, CD45R (B220), NK1.1, and TER119) at 1/200 dilution, and anti-biotin magnetic microbeads (25-40 μl per spleen) (Miltenyi Biotec, USA).\n(§2) For dendritic cells isolation, spleen and MLN were chopped and digested by collagenase type D (Roche, USA) for 30 min at room temperature. Digested tissues were treated with 5 mM of EDTA for additional 5 min and mashed through a 70 μm cell strainer. Subsequently, CD11c^+ cells were enriched by positive selection using anti-CD11c microbeads according to the manufacturer's protocol (Miltenyi Biotec, USA). Enriched populations were stained with CD45-APC, CD 11c-PE, I-A^b-FITC and TCR β and sorted for TCRβ^−CD45^+CD11c^+I-Ab^+ by flow cytometry using a FACS-DIVA cell sorter (USA).\n(§3) The culture medium used for dendritic cell-T cell cultures was Iscove's modified Dulbecco medium (IMDM) (Gibco, USA) supplemented with 10% heat-inactivated FCS, 2 mM L-glutamine, 100 U/ml penicillin, 100 μg/ml streptomycin, and 5 mM β-mercaptoethanol (all Sigma, USA). […] For dendritic cell-T cell cultures, 2×10^4 dendritic cells and 1×10^5 T cells were cultured in a volume of 200 μl (96-well plates). For irradiated APC-T cell cultures, 5×10^5 APCs and 1×10^5 T cells were cultured in a volume of 200 μl in 96-well plates (2×10^6 APCs and 0.5×10^6 T cells per well in 48-well plates). […] For the study shown in FIG. 4A, after sorting of naive CD4^+ cells (CD25^−CD44^lowCD62L^+), cells were washed twice in PBS+0.1% BSA, counted and labeled with 2 μM of CFSE (Carboxyfluorescein diacetate, succinimidyl ester) (Molecular Probes, USA) at a concentration of 5−10×10^6 cells per ml in PBS-0.1% BSA.\nTo block non-specific staining, the 2.4G2 anti-CD16/32 antibody was added."}, "[2]": {"test_system": "CD4 cells cultured with MLN DCs (MDC) or splenic DCs (SDC)", "test": "Retinal (RAL): TGF-β mediated Foxp3 induction (Treg differentiation) in DC/T cell co-cultures", "format": "cell-based"}, "CD4^+CD25^−T cells [3]": {"test_system": "CD4^+CD25^−T cells", "test": "TGF-β-dependent Foxp3 induction (Treg differentiation) in CD4 T cells with dendritic cells or APCs", "format": "cell-based, mouse", "details": "OT-II CD4 cells, OVAp, TGF-β1; LE135 1 μM, RA 100 nM", "method": "as §1, §2, §3\nFor Foxp3 staining, no stimulation with PMA/Ionomycin was performed, with the exceptions of FIGS. 8B and 9A. […]"}, "[4]": {"test_system": "CD4^+T cells from small intestine lamina propria and spleen", "test": "Oral Listeria monocytogenes infection (and naïve mice) treated with RA or LE540: IL-17^+ and Foxp3^+ CD4 T cells", "format": "in vivo, mouse", "text": "Listeria monocytogenes (strain WT LMOVA) was used. Mice were orally infected (gavage) with 5×10^8 CFU of L. monocytogenes. Mice received i.p. injections of vehicle, RA or LE540 on the same day and 2 days after infection. Mice were sacrificed 5 days post-infection for analysis.\nEvery second day, in a interval of two weeks, naïve mice received gavage of either vehicle, RA or LE540.\nLiver lymphocytes were isolated using 37.5% isotonic Percoll (GE Healthcare, USA), as previously described [Y. Kinjo et al, Nat Immunol 7, 978 (2006)]. Intestinal lymphocytes were isolated and prepared as previously described [Aranda et al., J Immunol 158, 3464 (1997)]. Briefly, small and large intestines were removed and placed in chilled HBSS media containing 5% FCS. The intestines were carefully cleaned from the mesentery and flushed of fecal content. Intestines were opened longitudinally and then cut into 1 cm pieces. The intestinal tissue was transferred to a 250-ml Erlenmeyer flasks containing 25 ml of preheated HBSS complemented with 2% FCS and 1 mM DTT (Sigma, USA) and shaken at 200 rpm for 40 min at 37° C. The tissue suspension was passed through a stainless steel sieve into 50-ml conical tubes and the cells were pelleted by centrifugation at 1200 rpm for 10 min at 4° C. The cell pellet was resuspended in complete HBSS, layered over a discontinuous 40/70% Percoll gradient, and centrifuged at 2000 rpm for 30 min. Cells from the 40/70% interface were collected, washed and resuspended in complete RPMI media. These purified cells constituted the intraepithelial lymphocyte (IEL) population. To isolate the lamina propria lymphocytes (LPL), the remaining intestinal tissue in the stainless steel sieve was minced and transferred to conical tubes. The minced pieces were resuspended in 20 ml of complete RPMI containing 1 mg/ml of collagenase (Sigma, USA) and shaken at 200 rpm for 40 min at 37° C. The tissue suspension was collected and passed through a 70 μm cell strainer and the cells were pelleted by centrifugation at 1200 rpm. The cells were then resuspended and layered onto a 40/70% Percoll gradient, centrifugated and processed as described above for the IEL preparation.\n(§4) To block non-specific staining, the 2.4G2 anti-CD16/32 antibody was added. […] For intracellular cytokine staining, cells obtained from in vitro cultures or isolated IELs were incubated for 4-5 hours with 50 ng/ml PMA, 750 ng/ml Ionomycin (both Sigma, USA) and 10 μg/ml Brefeldin A (Invitrogen, USA) in a tissue culture incubator at 37° C.\nFor Foxp3 staining, no stimulation with PMA/Ionomycin was performed, with the exceptions of FIGS. 8B and 9A. In these cases, the time of incubation with PMA/Ion was reduced to 3.5 hours. Intracellular Foxp3 staining was performed as per the eBioscience's Foxp3-staining kit protocol."}, "[5]": {"test_system": "CD4 cells cultured with either MLN DCs (MDC) or splenic DCs (SDC)", "test": "Retinal (RAL): TH-17 differentiation and IL-17 production in DC/T cell co-cultures", "format": "cell-based"}, "RXR": {"test_system": "RXR", "details": "cited from earlier work"}, "RAR": {"test_system": "RAR", "details": "cited from earlier work"}, "[6]": {"test_system": "retinoic-acid orphan receptor RORg-t", "test": "Retinal (RAL): RORg-t in APC-free system", "format": "cell-based"}, "PPAR-γ": {"molecular_target": "T1, PPAR-γ (Homo sapiens, UniProt P37231)", "T1 sequence (P37231 1-505)": "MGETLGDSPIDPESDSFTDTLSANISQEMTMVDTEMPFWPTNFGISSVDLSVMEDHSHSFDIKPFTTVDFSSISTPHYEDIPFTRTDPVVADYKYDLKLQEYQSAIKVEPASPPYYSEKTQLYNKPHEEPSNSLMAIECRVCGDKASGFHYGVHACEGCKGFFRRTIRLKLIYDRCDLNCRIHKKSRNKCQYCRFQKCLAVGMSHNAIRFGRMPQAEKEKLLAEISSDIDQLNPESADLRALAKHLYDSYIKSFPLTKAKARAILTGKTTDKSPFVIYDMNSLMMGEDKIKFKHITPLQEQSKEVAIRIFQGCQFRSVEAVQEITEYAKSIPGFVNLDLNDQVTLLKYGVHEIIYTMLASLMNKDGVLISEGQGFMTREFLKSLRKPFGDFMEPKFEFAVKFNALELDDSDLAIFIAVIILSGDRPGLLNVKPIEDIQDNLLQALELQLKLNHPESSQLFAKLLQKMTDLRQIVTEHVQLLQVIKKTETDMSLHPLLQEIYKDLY", "details": "cited from earlier work"}, "CD4^+CD25^−T cells [7]": {"test_system": "CD4^+CD25^−T cells", "test": "CTLA-4, CD103, CCR9 and CD25 staining of CD4 T cells stimulated with spleen APCs plus TGF-β1 and/or RA", "format": "cell-based, mouse", "details": "TGF-β1 added to RA", "method": "as §1\nAPCs were isolated from spleen of C57BL/6 mice by negative selection using CD90.2 (Thy1.2) magnetic microbeads to deplete T cells (Miltenyi Biotec).\nas §3, §4"}},
  "note": "Like-named read-outs stand apart in the source and are kept apart here.",
  "data": [
    {"molecule": "CC1=C(/C=C/C(C)=C\\C=C\\C(C)=C\\C(=O)O)C(C)(C)CCC1", "note": "[9-cis RA, 9-cis retinoic acid]", "values": [
      {"measurement": "Th-17 differentiation by spleen dendritic cells", "setting": "[1]; added to cultures with TGF-β and IL-6, 100 nM", "value": "also inhibited the Th-17 differentiation by spleen dendritic cells"}
    ]},
    {"molecule": "CN1c2cc3c(cc2N=C(c2ccc(C(=O)O)cc2)c2ccccc21)C(C)(C)CCC3(C)C", "note": "[LE135]", "values": [
      {"measurement": "relative inefficiency of MLN dendritic cells to mediate Th-17 differentiation", "setting": "[1]; RAR antagonist included during activation under Th-17 conditions, 1 μM", "value": "reversed"},
      {"measurement": "effect of RAR antagonist on RAL-increased Foxp3 induction", "setting": "[2]; LE135 added with RAL", "value": "reversed Foxp3 induction"},
      {"measurement": "TGF-β-dependent Foxp3 induction by MLN dendritic cells", "setting": "CD4^+CD25^−T cells [3]", "value": "reduced"}
    ]},
    {"molecule": "CN1c2cc3c(cc2N=C(c2ccc(C(=O)O)cc2)c2ccc4ccccc4c21)C(C)(C)CCC3(C)C", "note": "[LE540]", "values": [
      {"measurement": "Th-17 mucosal T cells (IL-17 staining of CD4^+T cells, small intestine lamina propria)", "setting": "[4]; 5 days after oral L. monocytogenes infection, i.p. days 0 and 2, RA 300 μg/mouse, LE540 100 μg/mouse", "value": "no apparent difference compared to the controls"},
      {"measurement": "differentiation / number of mucosal Foxp3^+Treg cells (small intestine lamina propria)", "setting": "[4]; Lm challenged mice, 5 days after oral infection", "value": "significantly reduce"},
      {"measurement": "spleen Foxp3^+CD4 cells", "setting": "[4]; Lm infected mice (2 i.p. injections) and naïve mice (2-week gavage)", "value": "No effect"}
    ]},
    {"molecule": "CC1=C(/C=C/C(C)=C/C=C/C(C)=C/C=O)C(C)(C)CCC1", "note": "[RAL, retinal]", "values": [
      {"measurement": "TH-17 differentiation", "setting": "[5]", "value": "able to inhibit TH-17 differentiation"},
      {"measurement": "IL-17 production from CD4 cells", "setting": "[5]; cultured with either MLN DCs (MDC) or splenic DCs (SDC)", "value": "suppresses IL-17 production"},
      {"measurement": "TH-17 differentiation", "setting": "[5]; listed as retinal", "value": "suppressor of TH-17 differentiation"},
      {"measurement": "binding to RXR", "setting": "RXR", "value": "shown to bind"},
      {"measurement": "binding to RAR", "setting": "RAR", "value": "does not bind"},
      {"measurement": "TGF-β mediated Foxp3 induction / Treg differentiation", "setting": "[2]", "value": "enhance TGF-β mediated Foxp3 induction"},
      {"measurement": "increased induction of Foxp3, MDC versus SDC cultures", "setting": "[2]; DC/T cell co-cultures", "value": "observed mainly in MDC cultures"},
      {"measurement": "TGF-β mediated Foxp3 induction / Treg differentiation", "setting": "[2]; listed as retinal", "value": "enhances Treg differentiation"},
      {"measurement": "RORg-t", "setting": "[6]", "value": "inhibited"},
      {"measurement": "binding to PPAR-γ", "setting": "PPAR-γ", "value": "shown to bind"}
    ]},
    {"molecule": "CC(C)=CCCC(C)=CC=O", "note": "[citral]", "values": [
      {"measurement": "effect of RALDH inhibition on RAL effects on TH-17 differentiation", "setting": "[5]; citral added with RAL", "value": "does not reverse RAL effects"}
    ]},
    {"molecule": "TGF-β: cytokine, transforming growth factor-beta, exogenous, 5 ng/ml (R&D Systems)", "values": [
      {"measurement": "RA-induced CCR9 expression", "setting": "CD4^+CD25^−T cells [7]", "value": "partially antagonized"}
    ]}
  ]
}
